Series [1] concerns PPAR-v. Nature of the series: Western blotting of PPAR-v protein expression in 3T3-L1 cells. The format is cell-based, mouse. The protocol:
(§1) HEK293 (human embryonic kidney) cells were obtained from the American Type Culture Collection (Manassas, Va.). 3T3-L1 and 3T3-F442A preadipocytes were kindly given by Dr. Jae-Woo Kim (Yonsei University, Seoul, Korea). Cells were cultured in DMEM supplemented with 10% fetal bovine serum (FBS). Differentiation of 3T3-L1 cells was induced with 1 μM dexamethasone, 500 μM 3-isobutyl-a-methylxanthine, and 5 μg/ml of insulin (DMI), which is designated DMI. From 2 to 8 days after DMI treatment, cells were maintained in DMEM containing 10% FBS and 1 μg/ml of insulin and the medium was changed every other day. Adipocyte differentiation of hADSCs was induced with DMI and 200 μM indomethacin in α-MEM supplemented with 10% FBS. Cells were incubated in 5% CO2 and 20% O2 at 37° C.
(§2) Proteins in cell lysates were electrophoresed on SDS-polyacrylamide gels and transferred to Immobilon-P membranes (Millipore, Billerica, Mass.). Membranes were preincubated with 5% skim milk in TTBS (Tris-buffered saline containing 0.1% Tween 20) for 30 min and incubated overnight with primary antibody diluted 1:500 to 1:3000 in the TTBS. The membranes were further incubated with a horseradish peroxidase conjugated secondary antibody for 1 h and visualized using Pierce ECL Plus western blotting substrate according to the manufacturer's instruction (Thermo Fisher Scientific, Waltham, Mass.).

Series [2] deals with C/EBP-β. Nature of the series: Quantitative RT-PCR of C/EBP-β mRNA in 3T3-L1 cells. The format is cell-based, mouse. The protocol:
as §1
(§3) Total RNAs were isolated from cultured cells using TRIzol® (Invitrogen). The EasyScript™ cDNA Synthesis Kit (Applied Biological Materials Inc., Richmond, Canada) was used to synthesize cDNAs. The level of each cDNA was relatively quantified by being divided by the 18S rRNA level in the corresponding sample.

The test system of the next series is CD36. Nature of the series: Quantitative RT-PCR of CD36 mRNA in 3T3-L1 cells. The format is cell-based, mouse. As for the experimental part: as §1, §3
Another series deals with FABP4. As to the kind of experiment: Quantitative RT-PCR of FABP4 mRNA in 3T3-L1 cells. The format is cell-based, mouse. The protocol: as §1, §3
Series [3] relates to PPAR-v. Nature of the series: Ubiquitination of PPAR-v, western blotting. Particulars: neddylation inhibited using siNEDD8; FIG. 3E. The format is cell-based. The protocol: as §2
To precipitate HA-tagged proteins, transfected cells were lysed in a buffer containing 5 mM EDTA, 50 mM Tris-Cl, 100 mM NaCl, 0.1% NP-40, and the protease inhibitor cocktail (Sigma-Aldrich). Cell lysates (1 mg proteins) were incubated with EZview™ anti-HA affinity beads sequentially incubated with a primary antibody (10 μg/mL) and protein A/G-Sepharose beads (GE Healthcare, Uppsala, Sweden) at 4° C. for 4 h. Pull down proteins were eluted in a 2×SDS denaturing buffer and subjected to Western blotting as described above. For HA-bead immunoprecipitation, 1 mg of protein was incubated with 10 ul of HA-bead at 4° C. for 4 h and washed. Then proteins were eluted in a 2×SDS denaturing buffer and electrophoresed in a SDS-PAGE gel and subjected to Western blotting as described above.

In another series the test system is 3T3-L1 cells. As to the kind of experiment: Adipocyte differentiation of 3T3-L1 cells, Oil-red O staining. Type of series: cell-based, mouse. The note with it: for adipose differentiation: amount dependent. As for the experimental part:
as §1
Adipocytes were fixed with 3.7% of formalin and stained with 0.3% Oil-red-O solution (Sigma-Aldrich) dissolved in isopropanol. 0.5% Oil-red-O (Sigma-Aldrich) was dissolved in isopropanol. Oil-red-O stock solution and H2O were mixed at a ratio of 6:4 and filtered. Then 60% Oil-red-O stock solution was incubated with the cells for 1 h and washed with distilled water and scanned for image.

Series [4] relates to C/EBP-β. As to the kind of experiment: Western blotting of C/EBP-β protein expression in 3T3-L1 cells. Type of series: cell-based, mouse. Particulars: FIG. 1E. As for the experimental part: as §1, §2
Series [5] relates to PPAR-v. Nature of the series: Quantitative RT-PCR of PPAR-v mRNA in 3T3-L1 cells. The format is cell-based, mouse. As for the experimental part:
as §1, §3

The mark [6] stands for this setting: knock down after the cells were induced to differentiation, FIG. 1D.
Setting [7] is: siNEDD8 knock down, PCR at 0, 2, 4, 6, and 8 days after start of differentiation, FIG. 1F.
[8] abbreviates: 3T3-L1 cells treated with 0.5 μM MLN4924 before the differentiation, 0, 2, 4, 6, 8 days, FIG. 2B.

“siNEDD8: siRNA against NEDD8; Table 1 siNEDD8 is human, SEQ ID NO: 1; text does not say which sequence was used in 3T3-L1 (CAGACAAGGUGGAGCGAAUCAAGGA; other strand not given here)”: the “expression of PPAR-v” value in the series with PPAR-v [1] (setting [6]) is recorded as “suppressed”; in the series on PPAR-v [1] (knock down before induction, 0, 2, 4, 6 and 8 days during differentiation, compared to control, time dependent, FIG. 1E), “decreased”. Also, the “mRNA expression level of C/EBP-β” value with C/EBP-β [2] (setting [7]) was “decreased”. Moreover, the “mRNA expression level of CD36” value with CD36 (setting [7]) is “decreased”. Further, the “mRNA expression level of FABP4” value with FABP4 (setting [7]) was “decreased”. Moreover, the “ubiquitination of PPAR-v” value in the series on PPAR-v [3] is reported as “increased”. Also, the adipogenesis result with 3T3-L1 cells (setting [6]) is “suppressed”. The “expression of C/EBP-β” value with C/EBP-β [4] (0, 2, 4, 8, 16, 24 h after the initiation of differentiation) is recorded as “decreased”; with C/EBP-β [4] (knock down before induction, 0, 2, 4, 6 and 8 days during differentiation, compared to control, time dependent) it was “decreased”. Further, the “mRNA expression level of PPAR-v” value with PPAR-v [5] (setting [7]) is listed as “decreased”.
In the case of `COc1ccc(C2=NC(c3ccc(Cl)cc3)C(c3ccc(Cl)cc3)N2C(=O)N2CCNC(=O)C2)c(OC(C)C)c1` (stereo not drawn) [nutlin-3, 4-[4,5-Bis(4-chlorophenyl)-2-(2-isopropoxy-4-methoxy-phenyl)-4,5-dihydro-imidazole-1-carbonyl]-piperazin-2-one, reference compound], in the series with 3T3-L1 cells (nutlin-3 10 and 20 μM, before and after differentiation was induced, FIG. 5D), the adipose differentiation result is listed as “suppressed”.
As for `NS(=O)(=O)OC[C@@H]1C[C@@H](n2ccc3c(N[C@H]4CCc5ccccc54)ncnc32)C[C@@H]1O` [MLN4924, reference compound], in the series on PPAR-v [1] (3T3-L1 cells treated with MLN4924 after the differentiation was induced, FIG. 2A), the “expression of PPAR-v protein” value is on record as “suppresses”. Also, the “C/EBP-β at the mRNA level” value in the series on C/EBP-β [2] (setting [8]) is listed as “decreased”. In addition, in the series on CD36 (setting [8]), the “CD36 at the mRNA level” value is given as “decreased”. For the same compound, the “FABP4 at the mRNA level” value in the series on FABP4 (setting [8]) is given as “decreased”. For the same compound, the “differentiation of 3T3L1 cells into adipocytes” value in the series on 3T3-L1 cells (MLN4924 0.1 and 0.5 μM, before and after differentiation was induced, Oil-red O, FIG. 2A) is recorded as “suppressed”. Further, in the series with PPAR-v [5] (setting [8]), the “PPAR-v at the mRNA level” value was “decreased”.
“siMDM2: MDM2 siRNA used in 3T3-L1; probably the mouse one, SEQ ID NO: 8, 5′-GCAAUGAUCUACAGAAAUUUAGUGG-3′ (other strand not given here)”: the adipose differentiation result in the series with 3T3-L1 cells (3T3-L1 transfected with siMDM2 10, 20 or 50 nM, differentiation induced after 2 days, FIG. 5C) is reported as “suppressed”.

Source of the values: patent publication US10106797B2, “Methods for suppressing adipocyte differentiation” (SEOUL NATIONAL UNIVERSITY R&DB FOUNDATION, priority 2013, dated 2018).
